9 compounds from patent US11453683B1, “KRas G12D inhibitors” (Mirati Therapeutics, Inc., priority 2019, dated 2022) can be followed below.

The structures appear in SMILES notation.

This experiment concerns KRas G12D-mediated phosphorylation of ERK. As to the kind of experiment: Inhibition of KRas G12D-mediated phosphorylation of ERK in AGS cells. It counts as cell-based. Conditions: Homo sapiens; AGS cells expressing G12D, 3 hours, phospho-ERK normalized to GAPDH. Summed up:
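In-cell Western: p-ERK Thr202/Tyr204 signal over GAPDH, as % of DMSO control, with IC50 from a 4-parameter curve. AGS cells seeded 40,000/well for 12-14 h, exposed to compound 3 h at 0.5% DMSO final, then formaldehyde-fixed and methanol-permeabilized.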
As usually defined, the IC50 is the point on the concentration scale where inhibition reaches its midpoint. Lower therefore signals greater potency. `CC(C)c1c(Cl)cc(O)cc1-c1ncc2c(N3C[C@H]4CC[C@@H](C3)N4)nc(OC[C@@]34CCCN3C[C@H](F)C4)nc2c1F` [Example 291, 3-(4-((1R,5S)-3,8-diazabicyclo[3.2.1]octan-3-yl)-8-fluoro-2-(((2R,7aS)-2-fluorohexahydro-1H-pyrrolizin-7a-yl)methoxy)pyrido[4,3-d]pyrimidin-7-yl)-5-chloro-4-isopropylphenol]: it took 46.5 nM to reach half-maximal inhibition (IC50).

In the case of `Fc1c(-c2cccc3cccc(-c4c[nH]nn4)c23)ncc2c(N3C[C@H]4CC[C@@H](C3)N4)nc(OCC34CCCN3CCC4)nc12` [Example 180, 7-(8-(1H-1,2,3-triazol-4-yl)naphthalen-1-yl)-4-((1R,5S)-3,8-diazabicyclo[3.2.1]octan-3-yl)-8-fluoro-2-((hexahydro-1H-pyrrolizin-7a-yl)methoxy)pyrido[4,3-d]pyrimidine], the IC50 was over 16700 nM.

As to `Fc1c(-c2c(C(F)(F)F)ccc3[nH]ncc23)ncc2c(N3C[C@H]4CC[C@@H](C3)N4)nc(OCC34CCCN3CCC4)nc12` [Example 344, 4-((1R,5S)-3,8-diazabicyclo[3.2.1]octan-3-yl)-8-fluoro-2-((tetrahydro-1H-pyrrolizin-7a(5H)-yl)methoxy)-7-(5-(trifluoromethyl)-1H-indazol-4-yl)pyrido[4,3-d]pyrimidine], the IC50 came to 8070 nM.

The compound `CN1C[C@H](C(F)(F)F)C[C@H]1COc1nc(N2C[C@H]3CC[C@@H](C2)N3)c2cnc(-c3cc(O)cc4ccccc34)c(F)c2n1` [Example 28, 4-(4-((1R,5S)-3,8-diazabicyclo[3.2.1]octan-3-yl)-8-fluoro-2-(((2S,4R)-1-methyl-4-(trifluoromethyl)pyrrolidin-2-yl)methoxy)pyrido[4,3-d]pyrimidin-7-yl)naphthalen-2-ol] returned an IC50 of 11700 nM.

In the case of `CCc1c(F)ccc2cccc(-c3ncc4c(N5C[C@H]6CC[C@@H](C5)N6)nc(OCC56CCCN5CCC6)nc4c3F)c12` [Example 426, 4-((1R,5S)-3,8-diazabicyclo[3.2.1]octan-3-yl)-7-(8-ethyl-7-fluoronaphthalen-1-yl)-8-fluoro-2-((hexahydro-1H-pyrrolizin-7a-yl)methoxy)pyrido[4,3-d]pyrimidine], half-maximal inhibition (IC50) was put at 228 nM.

`Oc1ccc(CC(F)(F)F)c(-c2ncc3c(N4C[C@H]5CC[C@@H](C4)N5)nc(OC[C@@]45CCCN4C[C@H](F)C5)nc3c2F)c1` [Example 424, 3-(4-((1R,5S)-3,8-diazabicyclo[3.2.1]octan-3-yl)-8-fluoro-2-(((2R,7aS)-2-fluorohexahydro-1H-pyrrolizin-7a-yl)methoxy)pyrido[4,3-d]pyrimidin-7-yl)-4-(2,2,2-trifluoroethyl)phenol] returned an IC50 of 681 nM.

For `Fc1c(-c2cccc3cccc(CC(F)F)c23)ncc2c(N3C[C@H]4CC[C@@H](C3)N4)nc(OCC34CCCN3CCC4)nc12` [Example 247, 4-((1R,5S)-3,8-diazabicyclo[3.2.1]octan-3-yl)-7-(8-(2,2-difluoroethyl)naphthalen-1-yl)-8-fluoro-2-((hexahydro-1H-pyrrolizin-7a-yl)methoxy)pyrido[4,3-d]pyrimidine], the midpoint of inhibition, the IC50, lay at 4310 nM.

Turning to `CN1CCC[C@H]1COc1nc(N2C[C@H]3CC[C@@H](C2)N3)c2cnc(-c3cccc4c3C(C)(C)CC4)c(F)c2n1` [Example 161, 4-((1R,5S)-3,8-diazabicyclo[3.2.1]octan-3-yl)-7-(3,3-dimethyl-2,3-dihydro-1H-inden-4-yl)-8-fluoro-2-(((S)-1-methylpyrrolidin-2-yl)methoxy)pyrido[4,3-d]pyrimidine bis(2,2,2-trifluoroacetate)], the IC50 was over 16700 nM.

`CC(C)c1c(Cl)cccc1-c1ncc2c(N3C[C@H]4CC[C@@H](C3)N4)nc(OCC34CCCN3CCC4)nc2c1F` [Example 298, 4-((1R,5S)-3,8-diazabicyclo[3.2.1]octan-3-yl)-7-(3-chloro-2-isopropylphenyl)-8-fluoro-2-((hexahydro-1H-pyrrolizin-7a-yl)methoxy)pyrido[4,3-d]pyrimidine] returned a half-maximal inhibitory concentration (IC50) of 1230 nM.
